Columns and labels:
[1] = target: Cyclin-dependent kinase 2 (Homo sapiens, UniProt P24941); experiment: Inhibition of CDK2
[2] = target: Cyclin-dependent kinase 1 (Homo sapiens, UniProt P06493); experiment: Inhibition of CDC2
[3] = Inhibition of MAPK
[4] = target: Cyclin-dependent kinase 4 (Homo sapiens, UniProt P11802); experiment: Inhibition of CDK4
Chain of Cyclin-dependent kinase 4 (P11802 whole entry): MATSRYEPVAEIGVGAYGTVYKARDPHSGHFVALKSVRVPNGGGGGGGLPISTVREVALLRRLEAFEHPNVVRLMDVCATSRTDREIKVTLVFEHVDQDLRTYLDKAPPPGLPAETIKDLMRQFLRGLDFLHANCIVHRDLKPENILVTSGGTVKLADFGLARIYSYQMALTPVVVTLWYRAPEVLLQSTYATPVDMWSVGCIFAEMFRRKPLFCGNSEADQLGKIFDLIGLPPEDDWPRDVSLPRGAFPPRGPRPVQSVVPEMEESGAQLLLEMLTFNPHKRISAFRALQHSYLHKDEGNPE

Chain of Cyclin-dependent kinase 1 (P06493 whole entry): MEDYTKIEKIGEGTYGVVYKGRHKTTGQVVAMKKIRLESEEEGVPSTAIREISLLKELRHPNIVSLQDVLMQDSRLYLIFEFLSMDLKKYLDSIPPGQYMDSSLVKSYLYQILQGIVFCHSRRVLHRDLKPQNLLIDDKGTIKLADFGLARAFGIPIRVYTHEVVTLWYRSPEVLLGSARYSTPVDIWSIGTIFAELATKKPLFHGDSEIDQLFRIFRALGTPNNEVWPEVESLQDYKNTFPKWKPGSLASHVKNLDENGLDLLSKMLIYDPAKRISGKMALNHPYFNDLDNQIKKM

SMILES	IC50 [1] [nM]	IC50 [2] [nM]	IC50 [3] [nM]	IC50 [4] [nM]
O=C1Nc2cc3c(O[C@@H]4O[C@H](CO)[C@@H](O)[C@H](O)[C@H]4O)cccc3c3c4c(cc1c23)OCO4	> 10000	–	–	–
COc1c(O)cc2c3c(cc4ccc(O)cc4c13)NC2=O [ARISTOLACTAM AIIIA]	140	214	35300	1420

From ChEMBL document CHEMBL1156897, “New potential antitumor compounds from the plant Aristolochia manshuriensis as inhibitors of the CDK2 enzyme” (Bioorg Med Chem Lett, 2010)
